Source: ChEMBL document CHEMBL3352697, “Molecular modeling studies of atorvastatin analogues as HMGR inhibitors using 3D-QSAR, molecular docking and molecular dynamics simulations” (Bioorg Med Chem Lett, 2014)

Biological target: T1, 3-hydroxy-3-methylglutaryl-coenzyme A reductase (Homo sapiens, UniProt P04035)
T1 sequence (P04035 whole entry): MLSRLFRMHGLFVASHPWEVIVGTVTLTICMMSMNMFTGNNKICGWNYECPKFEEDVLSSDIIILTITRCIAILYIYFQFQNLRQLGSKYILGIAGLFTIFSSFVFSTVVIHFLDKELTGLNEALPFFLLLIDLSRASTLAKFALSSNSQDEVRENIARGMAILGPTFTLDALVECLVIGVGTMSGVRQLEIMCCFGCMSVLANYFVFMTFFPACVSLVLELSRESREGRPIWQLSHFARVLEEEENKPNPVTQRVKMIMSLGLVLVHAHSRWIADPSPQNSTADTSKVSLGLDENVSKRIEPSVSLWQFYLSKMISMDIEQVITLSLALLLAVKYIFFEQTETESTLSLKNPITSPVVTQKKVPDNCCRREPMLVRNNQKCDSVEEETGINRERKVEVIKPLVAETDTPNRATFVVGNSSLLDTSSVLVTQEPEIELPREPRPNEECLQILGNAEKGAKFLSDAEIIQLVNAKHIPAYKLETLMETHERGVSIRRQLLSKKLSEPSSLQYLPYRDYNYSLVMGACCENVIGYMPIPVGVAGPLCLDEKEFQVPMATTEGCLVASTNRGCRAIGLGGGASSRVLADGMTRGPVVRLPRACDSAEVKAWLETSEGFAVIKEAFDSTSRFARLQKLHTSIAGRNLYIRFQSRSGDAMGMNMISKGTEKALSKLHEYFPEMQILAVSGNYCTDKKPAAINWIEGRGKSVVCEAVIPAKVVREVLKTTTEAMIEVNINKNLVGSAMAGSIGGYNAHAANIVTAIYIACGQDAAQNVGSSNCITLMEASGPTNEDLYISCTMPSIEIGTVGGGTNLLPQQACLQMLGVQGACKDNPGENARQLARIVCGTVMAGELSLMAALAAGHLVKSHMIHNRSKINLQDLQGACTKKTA
Test: Inhibition of HMG-CoA reductase (unknown origin)

- IC50: 8.89 nM
SMILES: CC(C)n1c(/C=C/[C@@H](O)C(F)(F)[C@@H](O)CC(=O)O)c(-c2ccc(F)cc2)c2ccccc21
